According to US20120157401A1, “METHODS FOR TREATING NEUROFIBROMATOSIS” (PTC Therapeutics, Inc., priority 2009, published 2012):

Assays:
HT1080 xenografts = experiment: HT1080 xenograft dose response: tumor growth; type: in vivo, athymic nude mice; details: 18 days
Method: Experimental Study Design. HT1080 cells (5×10^6 cells/mouse) were implanted subcutaneously in male athymic nude mice.
Tumor size was measured using calipers at periodic intervals during the study (data shown in Section 9.2.2). […] The study was ended after 18 days, when the vehicle treated tumors reached a mean volume of ˜1755 mm^3. […] Mice were sacrificed, and excised tumors were homogenized in buffer containing protease inhibitors. Both terminal intratumoral and pathologic plasma human VEGF levels were measured using an ELISA that recognizes human VEGF121 and VEGF165 (as described in Section 9.1.1.1). Intratumoral VEGF levels were normalized to the total tumor protein concentration, while pathologic plasma human VEGF levels were expressed in pg/mL of plasma.
Experimental Design. The experimental design was reported in Section 9.1.2.2.

MDA MB 468 xenografts = experiment: Tumor perfusion by DCE-MRI in MDA-MB-468 xenografts; type: in vivo, athymic nude mice; details: 10 mg/kg oral QD
Description: Experimental Design. Dynamic contrast-enhanced magnetic resonance imaging can be used preclinically and clinically to evaluate the anatomy of soft tissues, including the identification and accurate measurement of tumor volumes. In addition, evaluation of the intratumoral pharmacokinetics of contrast agents containing gadolinium can be used to measure vascular permeability characteristics. Coupling gadopentetate dimeglumine gadolinium to a […] like bovine serum albumin can reveal information about the necrotic (non-perfused) and non-necrotic (perfused) tumor volumes, and the percentage of vascular blood volume relative to the perfused tumor volume (known as the fractional blood volume [fBV]). Use of a […] tracer, gadopentetate dimeglumine, can reveal information regarding the volume transfer coefficient (K^trans), a variable that represents a combination of vascular permeability, vascular surface area, and blood flow.
Before each DCE-MRI scan, mice were injected intravenously with gadolinium-containing contrast dyes (bovine serum albumin-gadopentetate dimeglumine conjugate at ˜0.03 mmol/kg followed by gadopentetate dimeglumine at ˜0.2 mmol/kg). Baseline DCE-MRI measurements were taken on Day −1, test Compounds were administered on Day 0 through Day 5, and additional DCE-MRI measurements were taken on Days 1, 3, and 5. Image analyses were conducted with customized software. Total tumor volumes were measured by semi-automatically segmenting a region of interest around an anatomical image of the tumor. Tumor volumes of necrotic and non-necrotic tissues were measured by applying the same semi-automated segmentation process to a contrast dyed image. fBV and K^trans were computed using a standard Kety PK model.

LNCaP xenografts = experiment: LNCaP prostate cancer xenograft: tumor growth (Table 20); type: in vivo, athymic nude mice
Method: Experimental Design. The LNCaP cell line is derived from a lymph node metastasis.
Tumor size was measured by calipers at periodic intervals during the study. When the mean tumor size in a mouse exceeded 1500 mm^3, mice in that group were sacrificed and both tumor and plasma were assayed for pathologic VEGF concentration as described in Section 9.1.1.1.

HT1080 cells = experiment: Kinetics of S-phase transit by BrdU incorporation in HT1080 cells; type: cell-based, human
Method: Experimental Design. HT 1080 cells are exposed to BrdU (bromodeoxyuridine, a synthetic nucleoside that is an analogue of thymidine and is incorporated into DNA during the S phase of cell division) (FITC BrdU Flow Kit, BD Pharmingen catalog #552598). Cells are grown and treated as described in Section 9.3.1.3 above with the exception that one hour prior to harvesting by trypsinization, BrdU (final concentration 1 μM) is added to each culture for 1 hour. Cells actively replicating DNA during this brief time incorporate the BrdU into the DNA, which can then be quantitated. BrdU content is quantitated with using the FITC BrdU Flow Kit as instructed by the manufacturer. The process includes fixation (paraformaldehyde) and DNA staining with 7-AAD (7-amino-actinomycin D) followed by incubation with a fluoro-tagged anti-BrdU antibody that specifically recognizes BrdU incorporated into DNA. Dual channel FACS analysis permits assessment of both the DNA content of individual cells and the rate of transit across the S-phase, which is assessed based upon BrdU incorporation over the one hour treatment period.

[1] = Cardiovascular safety pharmacology in awake telemeterized dogs; type: in vivo, beagle dogs; details: single oral doses of 30, 60, and 120 mg/kg, male dogs
[2] = Oral pharmacokinetics / toxicokinetics in rats; type: in vivo, Sprague Dawley rats
Method: The pharmacokinetic evaluations in mice were adjuncts to the primary pharmacodynamic xenograft studies. The evaluations in rats included toxicokinetic assessments in single-dose, 7-day, and 28-day toxicology studies as well as a mass-balance study after a single oral dose of ^14C-Compound #10. The evaluations in dogs included toxicokinetic assessments in 7-day and 28-day toxicology studies. In the studies performed, rodents were dosed once daily with Compound #10 formulated in vehicle and administered via oral gavage.

CYP1A2 = target: T1, CYP1A2 (Homo sapiens, UniProt P05177); experiment: CYP inhibition: CYP1A2; type: in vitro ADME; details: human hepatic microsomes or recombinant isoenzymes
T1 construct: host or cells: human hepatic microsomes or recombinant isoenzyme (not distinguished)
Description: It is possible that in certain clinical trial subjects, such agents may need to be adjusted for dosing or replaced by alternative agents that are not metabolized by CYP2D6, particularly when such agents may have a low therapeutic index.

T47D xenografts = experiment: T47D estrogen-sensitive breast cancer xenograft: tumor growth
Method: Experimental Design. Estrogen pellets (0.72 mg/pellet) were implanted 30 days prior to cell implantation and again 60 days later. T47D estrogen-sensitive breast cancer cells (5×10^6 cells/mouse mixed 1:1 with […] ™) were implanted subcutaneously in female athymic nude mice. […] Tamoxifen was included as a positive control.
Tumor size was measured by calipers at periodic intervals. After 74 days of treatment, the mice were sacrificed.

[3] = LNCaP xenografts, male athymic nude mice, 10 mg/kg M-W-F oral gavage

T1 sequence (P05177 whole entry): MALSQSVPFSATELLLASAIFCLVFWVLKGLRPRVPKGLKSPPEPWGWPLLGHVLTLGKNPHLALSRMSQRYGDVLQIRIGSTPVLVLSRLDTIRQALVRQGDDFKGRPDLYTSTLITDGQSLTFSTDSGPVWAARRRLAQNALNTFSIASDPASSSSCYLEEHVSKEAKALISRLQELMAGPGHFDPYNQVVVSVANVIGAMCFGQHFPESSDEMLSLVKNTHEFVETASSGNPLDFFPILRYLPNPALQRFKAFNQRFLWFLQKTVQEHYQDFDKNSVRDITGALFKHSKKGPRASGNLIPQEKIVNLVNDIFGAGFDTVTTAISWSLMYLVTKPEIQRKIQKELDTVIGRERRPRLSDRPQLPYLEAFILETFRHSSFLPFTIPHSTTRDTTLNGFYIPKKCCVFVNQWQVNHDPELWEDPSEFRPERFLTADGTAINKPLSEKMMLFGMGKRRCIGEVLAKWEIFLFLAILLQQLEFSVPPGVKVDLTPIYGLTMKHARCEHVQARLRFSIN

In the case of `COc1ccc(C2c3[nH]c4ccc(Cl)cc4c3CCN2C(=O)Oc2ccc(Cl)cc2)cc1` (racemic) [Compound #10], the “Toxicity on observing the animals” value (HT1080 xenografts; HT1080 xenograft mice) is reported as “no overt toxicity”, the “Dose levels at which maximum antitumor activity was observed” value (HT1080 xenografts; HT1080 xenografts) is reported as ≥ 1 mg/kg BID and the “Change in mean tumor fBV in non-necrotic tissue” value (MDA MB 468 xenografts; Day 1 to Day 5) is reported as “declined after Day 3”. For the same compound, the “Change in mean K^trans in non-necrotic tissue” value (MDA MB 468 xenografts; Day −1 to Day 5) was “decreased”, the “Change in mean necrotic tumor volume” value (MDA MB 468 xenografts; Day −1 to Day 5) was “rapidly increased” and the “Change in mean non-necrotic tumor volume” value (MDA MB 468 xenografts; Day −1 to Day 5) was “decreased”. The “Change in mean total tumor volume” value (MDA MB 468 xenografts; Day −1 to Day 5) was “little mean change”, the “Time to tumor progression (time to reach ≧1000 mm^3)” value (LNCaP xenografts; 10 mg/kg M-W-F) was “prolonged” and the “Toxicity on observing the animals” value (LNCaP xenografts; LNCaP xenograft mice) was “no evidence of toxicity”. For the same compound, the “Mean % Inhibition of Tumor Size vs Vehicle at Day 35” value (LNCaP xenografts; [3]) was 36%, the “Median Time to Tumor Size ≧1000 mm^3” value (LNCaP xenografts; [3]) was 38 days and the “Percentage of cells residing in S-phase” value (HT1080 cells; HT1080, 18-hour treatment, increasing doses) was “net increase”. For the same compound, the “BrdU incorporation of individual cells vs DMSO control” value (HT1080 cells; HT1080, one-hour BrdU pulse after 18-hour treatment) was “incorporated less BrdU”, the “Changes in cardiovascular or electrocardiographic (including QT interval) parameters” value [1] was “no meaningful changes” and the Oral bioavailability [2] was “orally bioavailable”. The “Inhibition of CYP1A2” value (CYP1A2) was “No meaningful inhibition”, the “Mean % Inhibition of Tumor Size vs Vehicle at Day 74” value (T47D xenografts; 10 mg/kg oral QD) was 40% and the “Toxicity on observing the animals” value (T47D xenografts; T47D xenograft mice, 10 mg/kg QD, 74 days) was “no evidence of toxicity”.
